Experimental data reported in patent US10765706B2, “Method of stem cell delivery into the brain during chronic disease using blood brain barrier permeabilizers” (University of South Florida, priority 2015, dated 2020).

Tests used:
Type in all cases: in vivo, Sprague-Dawley rats
[1] = tested on: middle cerebral artery occlusion (MCAO) stroke rats; experiment: Neurogenesis, chronic stroke, FIG. 7; conditions: treatment 1 month after MCAO
Protocol: (§1) Adult Sprague-Dawley rats initially received sham surgery or experimental stroke via the one-hour middle cerebral artery occlusion (MCAO) model, as disclosed in Example 2. At 1 month after the MCAO surgery, stroke animals were randomly assigned to receive human umbilical cord stem cells only (2 million viable cells), mannitol only (1.1 mol/L mannitol at 4° C.), combined human umbilical cord stem cells (200,000 viable cells) and mannitol (1.1 mol/L mannitol at 4° C.), and vehicle (phosphate buffered saline, PBS) only.
(§2) The hUCBC (Saneron CCEL Therapeutics, Inc., Tampa, Fla.) were thawed at 37° C. Cells were washed and centrifuged three times (1000 rpm for 7 minutes). Viability was determined using the trypan blue dye exclusion method and cell concentration was adjusted to 10,000 cells/μl. A minimum of 85% viability post-thaw was required for a sample to be used for transplantation. For hUCBC+BBB, 200,000 hUCB cells were suspended in 10 μl PBS in a 28-gauge Hamilton syringe. For hUCBC only, 2×10^6 cells were suspended in […] PBS. The BBB only treatment was injected as prepared. Treatments were administered by intra-arterial injection into the internal carotid artery where the embolic filament was previously inserted. Infusion rate was 1 μl per minute as determined by using a micro-infusion pump.

[2] = tested on: middle cerebral artery occlusion (MCAO) stroke rats; experiment: Histological analysis of brain cell survival, chronic stroke, FIG. 2; conditions: treatment 1 month after MCAO
Protocol: The hUCBC (Saneron CCEL Therapeutics, Inc., Tampa, Fla.) were thawed at 37° C. Cells were washed and centrifuged three times (1000 rpm for 7 minutes). Viability was determined using the trypan blue dye exclusion method and cell concentration was adjusted to 10,000 cells/μl. A minimum of 85% viability post-thaw was required for a sample to be used for transplantation. For hUCBC+BBB, 200,000 hUCB cells were suspended in 10 μl PBS in a 28-gauge Hamilton syringe. For hUCBC only, 2×10^6 cells were suspended in XX μl PBS. The BBB only treatment was injected as prepared. Treatments were administered by intra-arterial injection into the internal carotid artery where the embolic filament was previously inserted. Infusion rate was 1 μl per minute as determined by using a micro-infusion pump.

[3] = tested on: middle cerebral artery occlusion (MCAO) stroke rats; experiment: Motor asymmetry, chronic stroke (treatment 1 month after MCAO), FIG. 1; conditions: intra-arterial, hUCBC only 2 million cells, combination 200,000 cells + 1.1 mol/L mannitol
Protocol: as §1, §2

Compound: OC[C@@H](O)[C@@H](O)[C@H](O)[C@H](O)CO [mannitol]
- neurogenesis, increase above sham-operated rats [1]: without concomitant neurogenesis
- cell survival (brain damage, peri-infarct area) [2]: significant brain damage
- motor asymmetry [3]: lowered the motor asymmetry slightly
